Source: ChEMBL document CHEMBL5365497, “Developing Novel Coumarin-Containing Azoles Antifungal Agents by the Scaffold Merging Strategy for Treating Azole-Resistant Candidiasis” (J Med Chem, 2023)
≈ marks a conversion by molar mass, not a printed value. Calls of active or inactive are those of the source. The calls are words filed in the database; no cut-off is given here.

Assays:
[1] = test system: Candida albicans; experiment: Antifungal activity against Candida albicans CPCC400616 assessed as fungal growth inhibition by CLSI based microdilution method; format: functional
[2] = test system: Candida albicans; experiment: Antifungal activity against Candida albicans SC5314 assessed as fungal growth inhibition by CLSI based microdilution method; format: functional
[3] = test system: Candida parapsilosis; experiment: Antifungal activity against Candida parapsilosis assessed as fungal growth inhibition by CLSI based microdilution method; format: functional; conditions: Lodderomyces parapsilosis
[4] = test system: Nakaseomyces glabratus; experiment: Antifungal activity against Candida glabrata assessed as fungal growth inhibition by CLSI based microdilution method; format: functional
[5] = test system: Pichia kudriavzevii; experiment: Antifungal activity against Pichia kudriavzevii assessed as fungal growth inhibition by CLSI based microdilution method; format: functional
[6] = test system: Candida tropicalis; experiment: Antifungal activity against Candida tropicalis assessed as fungal growth inhibition by CLSI based microdilution method; format: functional
[7] = test system: Cryptococcus neoformans; experiment: Antifungal activity against Cryptococcus neoformans assessed as fungal growth inhibition by CLSI based microdilution method; format: functional
[8] = molecular target: T1, Lanosterol 14-alpha demethylase (Candida albicans (strain SC5314 / ATCC MYA-2876) (Yeast), UniProt P10613); experiment: Inhibition of CYP51 in Candida albicans SC5314 assessed as ergosterol level at 0.03125 ug/ml incubated for 24 hrs by GC-MS analysis (reference value: 97.58 %); set-up: scale not given: the % may be the effect or the level left; conditions: at 0.03125 µg/mL
[9] = molecular target: T1, Lanosterol 14-alpha demethylase; experiment: Inhibition of CYP51 in Candida albicans SC5314 assessed as increase in eburicol level at 0.03125 ug/ml incubated for 24 hrs by GC-MS analysis; conditions: at 0.03125 µg/mL
[10] = molecular target: T1, Lanosterol 14-alpha demethylase; experiment: Inhibition of CYP51 in Candida albicans SC5314 assessed as increase in obtusifoliol level at 0.03125 ug/ml incubated for 24 hrs by GC-MS analysis; conditions: at 0.03125 µg/mL
[11] = molecular target: T1, Lanosterol 14-alpha demethylase; experiment: Inhibition of CYP51 in Candida albicans SC5314 assessed as increase in lanosterol level at 0.03125 ug/ml incubated for 24 hrs by GC-MS analysis; conditions: at 0.03125 µg/mL
[12] = test system: Candida albicans; experiment: Antifungal activity against fluconazole-resistant Candida albicans CaR assessed as fungal growth inhibition by CLSI based microdilution method; format: functional
[13] = test system: Candida albicans; experiment: Antifungal activity against fluconazole-resistant Candida albicans 17# assessed as fungal growth inhibition by CLSI based microdilution method; format: functional
[14] = test system: Candida albicans; experiment: Antifungal activity against fluconazole-resistant Candida albicans 632 assessed as fungal growth inhibition by CLSI based microdilution method; format: functional
[15] = test system: Candida albicans; experiment: Antifungal activity against fluconazole-resistant Candida albicans 904 assessed as fungal growth inhibition by CLSI based microdilution method; format: functional
[16] = test system: Candida albicans; experiment: Antifungal activity against fluconazole-resistant Candida albicans 901 assessed as fungal growth inhibition by CLSI based microdilution method; format: functional
[17] = test system: Candida albicans; experiment: Antifungal activity against Candida albicans CPCC400616 assessed as inhibition of yeast to hypha morphological transition at 2 ug/ml incubated for 4 hrs by inverted microscopy; format: functional, organism-based; conditions: dose 2.0 µg/ml
[18] = test system: Candida albicans; experiment: Antifungal activity against fluconazole-resistant Candida albicans 904 assessed as inhibition of yeast to hypha morphological transition at 16 ug/ml incubated for 4 hrs by inverted microscopy; format: functional, organism-based; conditions: dose 16.0 µg/ml
[19] = test system: Candida albicans; experiment: Antibiofilm activity against Candida albicans CPCC400616 incubated for 24 hrs by XTT reduction assay; format: functional, organism-based; conditions: dose <= 128.0 µg/ml
[20] = test system: Candida albicans; experiment: Antibiofilm activity against fluconazole-resistant Candida albicans 904 incubated for 24 hrs by XTT reduction assay; format: functional, organism-based; conditions: dose <= 128.0 µg/ml
[21] = test system: Candida albicans; experiment: Antifungal activity against Candida albicans CPCC400616 assessed as reduction in EFG1 expression at 2 ug/ml incubated for 12 hrs by RT-PCR analysis; format: functional, organism-based; conditions: dose 2.0 µg/ml
[22] = test system: Candida albicans; experiment: Antifungal activity against fluconazole-resistant Candida albicans 904 assessed as reduction in EFG1 expression at 16 ug/ml incubated for 12 hrs by RT-PCR analysis; format: functional, organism-based; conditions: dose 16.0 µg/ml
[23] = test system: Candida albicans; experiment: Antifungal activity against Candida albicans CPCC400616 assessed as reduction in TEC1 expression at 2 ug/ml incubated for 12 hrs by RT-PCR analysis; format: functional, organism-based; conditions: dose 2.0 µg/ml
[24] = test system: Candida albicans; experiment: Antifungal activity against fluconazole-resistant Candida albicans 904 assessed as reduction in TEC1 expression at 16 ug/ml incubated for 12 hrs by RT-PCR analysis; format: functional, organism-based; conditions: dose 16.0 µg/ml
[25] = test system: Candida albicans; experiment: Antifungal activity against Candida albicans CPCC400616 assessed as reduction in CPH1 expression at 2 ug/ml incubated for 12 hrs by RT-PCR analysis; format: functional, organism-based; conditions: dose 2.0 µg/ml
[26] = test system: Candida albicans; experiment: Antifungal activity against fluconazole-resistant Candida albicans 904 assessed as reduction in CPH1 expression at 16 ug/ml incubated for 12 hrs by RT-PCR analysis; format: functional, organism-based; conditions: dose 16.0 µg/ml
[27] = test system: Candida albicans; experiment: Antifungal activity against Candida albicans CPCC400616 assessed as reduction in ALS3 expression at 2 ug/ml incubated for 12 hrs by RT-PCR analysis; format: functional, organism-based; conditions: dose 2.0 µg/ml
[28] = test system: Candida albicans; experiment: Antifungal activity against fluconazole-resistant Candida albicans 904 assessed as reduction in ALS3 expression at 16 ug/ml incubated for 12 hrs by RT-PCR analysis; format: functional, organism-based; conditions: dose 16.0 µg/ml
[29] = test system: Candida albicans; experiment: Antifungal activity against fluconazole-resistant Candida albicans 904 assessed as decrease in ERG11 expression at 16 ug/ml measured after 16 hrs by RT-PCR analysis; format: functional, organism-based; conditions: dose 16.0 µg/ml
[30] = test system: Candida albicans; experiment: Antifungal activity against fluconazole-resistant Candida albicans 904 assessed as decrease in CDR1 expression at 16 ug/ml measured after 16 hrs by RT-PCR analysis; format: functional, organism-based; conditions: dose 16.0 µg/ml
[31] = test system: Candida albicans; experiment: Antifungal activity against fluconazole-resistant Candida albicans 904 assessed as decrease in CDR2 expression at 16 ug/ml measured after 16 hrs by RT-PCR analysis; format: functional, organism-based; conditions: dose 16.0 µg/ml
[32] = test system: Candida albicans; experiment: Antifungal activity against fluconazole-resistant Candida albicans 904 assessed as decrease in MDR1 expression at 16 ug/ml measured after 16 hrs by RT-PCR analysis; format: functional, organism-based; conditions: dose 16.0 µg/ml
[33] = test system: Candida albicans; experiment: Induction of ROS production in fluconazole-resistant Candida albicans 904 at 64 ug/ml incubated for 30 mins by fluorescence microscopy; format: functional, organism-based; conditions: dose 64.0 µg/ml
[34] = Metabolic stability in mouse liver microsomes assessed as half life incubated for 5 to 60 mins by LC-MS/MS analysis; format: ADME, Microsome; conditions: time 5-60 min
[35] = Stability in mouse plasma assessed as compound remaining at 1 uM measured for 180 mins by LC-MS/MS analysis; format: ADME, cell-free; conditions: read-out: Stability
[36] = Stability in mouse plasma assessed as half life at 1 uM measured for 180 mins by LC-MS/MS analysis; format: ADME, cell-free
[37] = Cytotoxicity against mouse J774.A1 cells assessed as cell growth inhibition by MTT assay; format: toxicity, cell-based
[38] = Cytotoxicity against human MRC5 cells assessed as cell growth inhibition by MTT assay; format: toxicity, cell-based

T1 sequence (P10613 whole entry): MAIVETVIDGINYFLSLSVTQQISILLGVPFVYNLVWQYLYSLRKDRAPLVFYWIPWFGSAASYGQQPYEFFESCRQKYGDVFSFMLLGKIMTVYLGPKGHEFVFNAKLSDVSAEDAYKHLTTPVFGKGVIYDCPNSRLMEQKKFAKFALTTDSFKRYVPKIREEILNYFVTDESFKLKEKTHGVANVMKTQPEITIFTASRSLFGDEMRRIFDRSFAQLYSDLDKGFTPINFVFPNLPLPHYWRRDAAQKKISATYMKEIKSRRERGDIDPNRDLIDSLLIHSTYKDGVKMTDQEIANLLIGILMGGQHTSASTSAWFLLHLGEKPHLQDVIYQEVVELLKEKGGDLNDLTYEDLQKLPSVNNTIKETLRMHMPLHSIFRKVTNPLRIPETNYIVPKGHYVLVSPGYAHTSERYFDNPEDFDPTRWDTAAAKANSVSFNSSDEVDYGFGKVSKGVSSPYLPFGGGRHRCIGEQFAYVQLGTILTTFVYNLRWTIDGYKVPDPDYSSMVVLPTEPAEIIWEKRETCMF

Question: What does the source list for `O=c1ccc2cc(COC(Cn3ccnc3)c3ccc(Cl)cc3Cl)ccc2o1` (stereo not given)?
Answer: MIC [1]: 0.06 µg/mL (≈ 0.144 µM); MIC [2]: 0.03 µg/mL (≈ 0.0722 µM); MIC [3]: < 0.25 µg/mL; MIC [4]: 0.25 µg/mL (≈ 0.602 µM); MIC [5]: 0.5 µg/mL (≈ 1.2 µM); MIC [6]: < 0.25 µg/mL; MIC [7]: 4 µg/mL (≈ 9.63 µM); Activity [8]: 0.99%; inhibition (INH) [9]: Active; inhibition (INH) [10]: Active; inhibition (INH) [11]: Active; MIC [12]: 0.5 µg/mL (≈ 1.2 µM); MIC [13]: 1 µg/mL (≈ 2.41 µM); MIC [14]: 16 µg/mL (≈ 38.5 µM); MIC [15]: 8 µg/mL (≈ 19.3 µM); MIC [16]: 32 µg/mL (≈ 77.1 µM); inhibition [17]: Active; inhibition [18]: Active; Activity [19]: Dose-Dependent Effect; Activity [20]: Dose-Dependent Effect; Activity [21]: Active; Activity [22]: Active; Activity [23]: Active; Activity [24]: Active; Activity [25]: Active; Activity [26]: Active; Activity [27]: Active; Activity [28]: Active; Activity [29]: Active; Activity [30]: Active; Activity [31]: Active; Activity [32]: Active; Activity [33]: Active; half-life [34]: 6.09 min; remaining at 3 h, 1 µM [35]: 98.7%; half-life at 1 µM [36]: > 360 min; IC50 [37]: 24.4 µM; IC50 [38]: 78.2 µM

Question: Which results are given for `O=c1ccc2ccc(COC(Cn3ccnc3)c3ccc(F)cc3F)cc2o1` (stereo not given)?
Answer: MIC [1]: 4 µg/mL (≈ 10.5 µM); MIC [2]: 0.25 µg/mL (≈ 0.654 µM); MIC [3]: 16 µg/mL (≈ 41.8 µM); MIC [4]: 64 µg/mL (≈ 167 µM); MIC [5]: 64 µg/mL (≈ 167 µM); MIC [6]: 8 µg/mL (≈ 20.9 µM); MIC [7]: 64 µg/mL (≈ 167 µM); MIC [12]: 128 µg/mL (≈ 335 µM); MIC [13]: 128 µg/mL (≈ 335 µM); MIC [14]: 32 µg/mL (≈ 83.7 µM); MIC [15]: 32 µg/mL (≈ 83.7 µM); MIC [16]: 64 µg/mL (≈ 167 µM)
